Several values for one entry are separate records, joined by “and”; a condition that tells them apart may be missing. Equal entries are not always repeated. Inconclusive results and toxic doses are left out. Rule as the data show it: active = T/C of 150% or more; inactive = T/C below 125%.
Tested on: L1210 leukemia ip in BDF1 mice, survival T/C
Assay: NCI In Vivo Anticancer Drug Screen. Data for tumor model L1210 Leukemia (intraperitoneal) in B6D2F1 (BDF1) mice
Conditions: endpoint: mean survival time, higher = longer survival
In short: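 Transplanted-tumor mice were given test agent; controls received vehicle only. Survival readings from the two groups were divided (treated over control).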

[1] = dose: 100.0 mg/kg/injection, schedule: Q01DX001 (ip), vehicle: saline
[2] = dose: 100.0 mg/kg/injection, schedule: Q01DX009 (ip), vehicle: saline
[3] = dose: 100.0 mg/kg/injection, schedule: Q04DX003 (ip), vehicle: Klucel (hydroxypropylcellulose) (HPC)
[4] = dose: 200.0 mg/kg/injection, schedule: Q01DX009 (ip), vehicle: saline
[5] = dose: 200.0 mg/kg/injection, schedule: Q04DX003 (ip), vehicle: Klucel (hydroxypropylcellulose) (HPC)
[6] = dose: 400.0 mg/kg/injection, schedule: Q01DX009 (ip), vehicle: saline
[7] = dose: 400.0 mg/kg/injection, schedule: Q04DX003 (ip), vehicle: Klucel (hydroxypropylcellulose) (HPC)
[8] = dose: 100.0 mg/kg/injection, schedule: Q04DX003 (ip), vehicle: saline with Tween-80
[9] = dose: 200.0 mg/kg/injection, schedule: Q04DX003 (ip), vehicle: saline with Tween-80
[10] = dose: 400.0 mg/kg/injection, schedule: Q04DX003 (ip), vehicle: saline with Tween-80
[11] = dose: 50.0 mg/kg/injection, schedule: Q04DX003 (ip), vehicle: saline with Tween-80
[12] = dose: 200.0 mg/kg/injection, schedule: Q01DX001 (ip), vehicle: saline
[13] = dose: 50.0 mg/kg/injection, schedule: Q04DX003 (ip), vehicle: Klucel (hydroxypropylcellulose) (HPC)

Measured: T/C

CN1CCN(CCCN2c3ccccc3Sc3ccc(C(F)(F)F)cc32)CC1
inactive: dose: 3.12 mg/kg/injection, schedule: Q01DX009 (ip), vehicle: saline 93 % of control | dose: 6.25 mg/kg/injection, schedule: Q01DX009 (ip), vehicle: saline 98 % of control and 104 % of control and 118 % of control | dose: 9.0 mg/kg/injection, schedule: Q04DX003 (ip), vehicle: saline with Tween-80 112 % of control | dose: 9.3 mg/kg/injection, schedule: Q01DX009 (ip), vehicle: saline 101 % of control | dose: 10.0 mg/kg/injection, schedule: Q01DX009 (ip), vehicle: saline with Tween-80 106 % of control | dose: 12.5 mg/kg/injection, schedule: Q01DX009 (ip), vehicle: saline 113 % of control and 106 % of control | dose: 12.5 mg/kg/injection, schedule: Q04DX003 (ip), vehicle: saline 102 % of control | dose: 15.0 mg/kg/injection, schedule: Q01DX009 (ip), vehicle: saline with Tween-80 101 % of control | dose: 18.0 mg/kg/injection, schedule: Q01DX001 (ip), vehicle: saline with Tween-80 104 % of control | dose: 18.0 mg/kg/injection, schedule: Q04DX003 (ip), vehicle: saline with Tween-80 117 % of control | dose: 18.7 mg/kg/injection, schedule: Q01DX009 (ip), vehicle: saline 114 % of control | dose: 18.75 mg/kg/injection, schedule: Q04DX003 (ip), vehicle: saline 106 % of control | dose: 20.0 mg/kg/injection, schedule: Q04DX003 (ip), vehicle: saline with Tween-80 111 % of control | dose: 22.0 mg/kg/injection, schedule: Q01DX009 (ip), vehicle: saline with Tween-80 118 % of control | dose: 25.0 mg/kg/injection, schedule: Q01DX009 (ip), vehicle: acetone 107 % of control | dose: 25.0 mg/kg/injection, schedule: Q01DX009 (ip), vehicle: saline with Tween-80 108 % of control | dose: 25.0 mg/kg/injection, schedule: Q01DX009 (ip), vehicle: saline 102 % of control and 109 % of control | dose: 25.0 mg/kg/injection, schedule: Q04DX003 (ip), vehicle: acetone 100 % of control | dose: 25.0 mg/kg/injection, schedule: Q04DX003 (ip), vehicle: saline 103 % of control [middle of 4 runs] | dose: 30.0 mg/kg/injection, schedule: Q04DX003 (ip), vehicle: saline with Tween-80 119 % of control | dose: 33.0 mg/kg/injection, schedule: Q01DX009 (ip), vehicle: saline with Tween-80 123 % of control | dose: 37.0 mg/kg/injection, schedule: Q01DX001 (ip), vehicle: saline with Tween-80 104 % of control | dose: 37.5 mg/kg/injection, schedule: Q04DX003 (ip), vehicle: saline 96 % of control | dose: 44.0 mg/kg/injection, schedule: Q04DX003 (ip), vehicle: saline with Tween-80 116 % of control | dose: 50.0 mg/kg/injection, schedule: Q01DX009 (ip), vehicle: acetone 120 % of control | dose: 50.0 mg/kg/injection, schedule: Q04DX003 (ip), vehicle: acetone 100 % of control | dose: 50.0 mg/kg/injection, schedule: Q04DX003 (ip), vehicle: saline 111 % of control [middle of 4 runs] | dose: 66.0 mg/kg/injection, schedule: Q04DX003 (ip), vehicle: saline with Tween-80 108 % of control | dose: 75.0 mg/kg/injection, schedule: Q01DX001 (ip), vehicle: saline with Tween-80 113 % of control | dose: 75.0 mg/kg/injection, schedule: Q04DX003 (ip), vehicle: saline with Tween-80 119 % of control | dose: 75.0 mg/kg/injection, schedule: Q04DX003 (ip), vehicle: saline 102 % of control | [1] 101 % of control | dose: 100.0 mg/kg/injection, schedule: Q01DX009 (ip), vehicle: acetone 113 % of control | dose: 100.0 mg/kg/injection, schedule: Q04DX003 (ip), vehicle: acetone 121 % of control | dose: 100.0 mg/kg/injection, schedule: Q04DX003 (ip), vehicle: saline 99 % of control and 112 % of control | dose: 150.0 mg/kg/injection, schedule: Q01DX001 (ip), vehicle: saline with Tween-80 90 % of control

O=[N+]([O-])c1cc(C=Nc2ccccc2)ccc1Cl
inactive: [2] 97 % of control | [3] 94 % of control | [4] 108 % of control | [5] 100 % of control | [6] 103 % of control | [7] 97 % of control

Brc1ccc(C2CCCCC2)cc1
inactive: [8] 97 % of control | [9] 93 % of control | [10] 101 % of control

CCOC(=O)c1c(-c2ccccc2)csc1NC(=O)c1ccccc1
inactive: [11] 92 % of control | [8] 90 % of control | [9] 89 % of control | [10] 90 % of control

CC(C)(SCC(N)C(=O)O)C(N)C(=O)O (stereo unspecified)
inactive: [1] 95 % of control | [2] 103 % of control | [12] 90 % of control | [4] 94 % of control | dose: 400.0 mg/kg/injection, schedule: Q01DX001 (ip), vehicle: saline 87 % of control | [6] 102 % of control

COc1ccc(Cl)cc1NC(=O)Nc1cc(C)ccc1Cl
inactive: dose: 100.0 mg/kg/injection, schedule: Q01DX009 (ip), vehicle: Klucel (hydroxypropylcellulose) (HPC) 101 % of control | [3] 90 % of control | dose: 200.0 mg/kg/injection, schedule: Q01DX009 (ip), vehicle: Klucel (hydroxypropylcellulose) (HPC) 110 % of control | [5] 95 % of control | dose: 400.0 mg/kg/injection, schedule: Q01DX009 (ip), vehicle: Klucel (hydroxypropylcellulose) (HPC) 116 % of control | [7] 95 % of control

OC1(c2cccc(C(F)(F)F)c2)CCN(C2CC2)CC1
inactive: dose: 12.5 mg/kg/injection, schedule: Q04DX003 (ip), vehicle: Klucel (hydroxypropylcellulose) (HPC) 104 % of control | dose: 25.0 mg/kg/injection, schedule: Q04DX003 (ip), vehicle: Klucel (hydroxypropylcellulose) (HPC) 105 % of control | [13] 100 % of control

N#Cc1nc(C#N)c(C#N)nc1C#N
inactive: dose: 6.25 mg/kg/injection, schedule: Q01DX009 (ip), vehicle: Klucel (hydroxypropylcellulose) (HPC) 105 % of control | dose: 12.5 mg/kg/injection, schedule: Q01DX009 (ip), vehicle: Klucel (hydroxypropylcellulose) (HPC) 100 % of control | dose: 25.0 mg/kg/injection, schedule: Q01DX009 (ip), vehicle: Klucel (hydroxypropylcellulose) (HPC) 94 % of control | dose: 50.0 mg/kg/injection, schedule: Q01DX009 (ip), vehicle: Klucel (hydroxypropylcellulose) (HPC) 97 % of control

CCC1(CC)N=C2OCCN2C1=O
inactive: dose: 12.5 mg/kg/injection, schedule: Q04DX003 (ip), vehicle: saline with Tween-80 97 % of control | dose: 25.0 mg/kg/injection, schedule: Q04DX003 (ip), vehicle: saline with Tween-80 95 % of control | [11] 97 % of control | [8] 94 % of control | [9] 91 % of control and 92 % of control | dose: 300.0 mg/kg/injection, schedule: Q04DX003 (ip), vehicle: saline with Tween-80 106 % of control

O=C(Nc1ccc(Br)cc1)Nc1ccccc1Cl
inactive: dose: 100.0 mg/kg/injection, schedule: Q04DX002 (ip), vehicle: saline + alcohol 100 % of control | dose: 200.0 mg/kg/injection, schedule: Q04DX002 (ip), vehicle: saline + alcohol 94 % of control | dose: 400.0 mg/kg/injection, schedule: Q04DX002 (ip), vehicle: saline + alcohol 96 % of control

Cc1cc2c(C)c3ccccc3c(C)c2c2ccccc12
inactive: [13] 98 % of control | [3] 95 % of control | [5] 104 % of control

CCOc1ccc(-n2c(C)nc3ccccc3c2=O)cc1CNCCBr
inactive: dose: 50.0 mg/kg/injection, schedule: Q01DX001 (ip), vehicle: saline 103 % of control | [1] 111 % of control | [12] 111 % of control

C=C1C(=O)OC2CC(C)C3C4OC4C(O)C3(C)C(O)C12 (stereo unspecified)
inactive: dose: 9.38 mg/kg/injection, schedule: Q01DX009 (ip), vehicle: saline with Tween-80 104 % of control | dose: 18.75 mg/kg/injection, schedule: Q01DX009 (ip), vehicle: saline with Tween-80 106 % of control | dose: 37.5 mg/kg/injection, schedule: Q01DX009 (ip), vehicle: saline with Tween-80 102 % of control

From PubChem BioAssay AID248 (DTP/NCI, 2004)
